# Experimental data: patent US20170088545A1, “CARBOXAMIDE INHIBITORS” (Norvartis AG, priority 2014, published 2017)
# Experiments:
# Smurf-1 = Smurf-1 (Homo sapiens, UniProt Q9HCE7); assay: HECT E3 ligase autoubiquitinylation TR-FRET assay, Smurf-1; assay type: biochemical; conditions: 45 min incubation, 8-point dose-response
# Source text: (§1) To determine the HECT E3 ligase selectivity of the compounds, a panel of biochemical HECT E3 ligase autoubiquitinylation assays was employed (Smurf-1, Smurf-2, WWP1, WWP2, ITCH, Nedd4, Nedd4L and E6AP). The conjugation of ubiquitin to a protein substrate is a multistep process. In an initial ATP-requiring step, a thioester bond is formed between the carboxyl terminus of ubiquitin and an internal cystein residue of the ubiquitin-activating enzyme (E1). Activated ubiquitin is then transferred to a specific cystein residue of an ubiquitin-conjugating enzyme (E2). E2s donate ubiquitin to a HECT E3 ligase (E3) from which it is transferred to the substrate protein. HECT E3 ligases can auto-ubiquitinylate. This event is detected in the TR-FRET (Time-Resolved Fluorescence Resonance Energy Transfer) assay used in this panel. The reaction mix contains E1, E2, tagged-E3, biotin-conjugated ubiquitin, the compound and ATP in a suitable buffer and is incubated for 45 minutes to allow auto-ubiquitinylation of the E3 ligase. To measure the extent of ubiquitinylated E3 ligase by TR-FRET, the donor fluorophore Europium cryptate (Eu3+ cryptate), conjugated to streptavidin which subsequently binds to biotinylated ubiquitin, and the modified allophycocyanin XL665 (HTRF® primary acceptor fluorophore) coupled to a tag-specific antibody (HA, His or GST), which recognizes the respective E3 ligase fusion proteins, are added after the reaction is complete. When these two fluorophores are brought together by a biomolecular interaction (in this case ubiquitinylation of the E3 ligase), a portion of the energy captured by the Cryptate during excitation is released through fluorescence emission at 620 nm, while the remaining energy is transferred to XL665. This energy is then released by XL665 as specific fluorescence at 665 nm. Light at 665 nm is emitted only through FRET with Europium.
# (§2) Test and reference compounds are prepared at 180× [final] in 90% DMSO, and diluted 1:3 in 90% DMSO.
# (§3) For the biochemical assay panel, 50 nl of the test compounds, reference compounds and buffer/DMSO control are transferred to the respective wells of a 384-well white GREINER “SMALL VOLUME” PS plate. The assay panel is run at room temperature on a Biomek FX liquid handling workstation. To the assay plates containing 50 nl compound or control solutions in 90% DMSO, 4.5 ul of E3 ligase solution were added per well, followed by 4.5 ul of the pre-incubated E1/E2/Ub mix or the pre-diluted ubiquitin (LOW control). Plates are shaken vigorously after each addition. In this assay the compound concentrations range from 3 nM to 10 uM in an 8-point dose-response curve.
# (§4) After 45 min of incubation the ubiquitinylation reactions were stopped by adding 4.5 ul 2 mM NEM, immediately followed by 4.5 ul of a detection solution including the XL665-labeled antibody and the streptavidin-coupled europium to give a total volume of 18 ul. After an incubation time of 45 min in the dark, the plates are transferred into the Pherastar fluorescence reader to measure the TR-FRET signal.
# Smurf-2 = Smurf-2 (Homo sapiens, UniProt Q9HAU4); assay: HECT E3 ligase autoubiquitinylation TR-FRET assay, Smurf-2; assay type: biochemical; conditions: 45 min incubation, 8-point dose-response
# Smurf-2, sequence (Q9HAU4 whole entry, species assumed): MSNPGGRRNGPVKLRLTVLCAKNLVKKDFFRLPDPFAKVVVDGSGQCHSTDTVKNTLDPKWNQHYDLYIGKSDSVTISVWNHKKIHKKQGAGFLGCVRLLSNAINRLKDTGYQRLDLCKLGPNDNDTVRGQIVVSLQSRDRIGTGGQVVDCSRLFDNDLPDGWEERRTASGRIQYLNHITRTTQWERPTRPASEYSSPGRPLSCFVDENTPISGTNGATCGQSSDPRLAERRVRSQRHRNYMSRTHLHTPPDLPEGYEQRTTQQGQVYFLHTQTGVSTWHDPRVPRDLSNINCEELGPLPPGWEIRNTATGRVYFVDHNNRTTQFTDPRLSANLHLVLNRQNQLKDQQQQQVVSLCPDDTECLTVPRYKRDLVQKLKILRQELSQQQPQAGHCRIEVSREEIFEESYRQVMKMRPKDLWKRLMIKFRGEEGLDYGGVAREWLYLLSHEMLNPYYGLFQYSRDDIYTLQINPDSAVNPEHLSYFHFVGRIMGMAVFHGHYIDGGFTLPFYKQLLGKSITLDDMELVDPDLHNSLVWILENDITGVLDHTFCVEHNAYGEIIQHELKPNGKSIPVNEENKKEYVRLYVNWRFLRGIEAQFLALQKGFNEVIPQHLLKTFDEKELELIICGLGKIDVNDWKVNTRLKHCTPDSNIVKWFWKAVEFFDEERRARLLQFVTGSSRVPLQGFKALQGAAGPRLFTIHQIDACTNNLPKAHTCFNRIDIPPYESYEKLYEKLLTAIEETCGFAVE
# Source text: as §1, §2, §3, §4
# Smurf-1, sequence (Q9HCE7 whole entry): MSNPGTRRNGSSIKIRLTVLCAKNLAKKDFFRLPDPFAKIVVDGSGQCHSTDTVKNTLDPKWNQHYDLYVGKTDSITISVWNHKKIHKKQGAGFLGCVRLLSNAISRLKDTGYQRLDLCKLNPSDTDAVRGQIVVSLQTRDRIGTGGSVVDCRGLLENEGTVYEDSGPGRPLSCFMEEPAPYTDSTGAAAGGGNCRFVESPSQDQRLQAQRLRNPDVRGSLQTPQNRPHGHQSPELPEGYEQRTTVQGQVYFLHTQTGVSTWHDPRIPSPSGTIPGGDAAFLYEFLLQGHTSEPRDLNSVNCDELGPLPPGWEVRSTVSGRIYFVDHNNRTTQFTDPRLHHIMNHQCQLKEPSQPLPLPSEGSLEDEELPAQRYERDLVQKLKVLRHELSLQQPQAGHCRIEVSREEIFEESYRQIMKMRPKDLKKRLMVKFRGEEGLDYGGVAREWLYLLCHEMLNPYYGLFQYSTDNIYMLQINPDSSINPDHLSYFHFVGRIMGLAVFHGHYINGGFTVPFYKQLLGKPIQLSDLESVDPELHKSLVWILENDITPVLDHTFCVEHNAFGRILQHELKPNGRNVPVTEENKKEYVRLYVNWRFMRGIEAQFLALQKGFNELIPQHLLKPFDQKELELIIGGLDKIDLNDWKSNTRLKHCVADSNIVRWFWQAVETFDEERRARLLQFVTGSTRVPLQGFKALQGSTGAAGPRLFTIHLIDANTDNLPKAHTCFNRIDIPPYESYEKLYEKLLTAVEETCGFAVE
Structure (SMILES),IC50 (Smurf-1),IC50 (Smurf-2)
"Cc1c(C(=O)Nc2c(C)n(C)n(-c3ccccc3F)c2=O)noc1-c1ccc(Cl)cc1Cl [Example 001, 5-(2,4-Dichlorophenyl)-N-(2-(2-fluorophenyl)-1,5-dimethyl-3-oxo-2,3-dihydro-1H-pyrazol-4-yl)-4-methylisoxazole-3-carboxamide]",29.5 nM,> 10000 nM
"Cc1c(C(=O)Nc2c(C)n(C)n(-c3ccccc3F)c2=O)noc1-c1ccc(C2CC2)cc1Cl [Example 002, 5-(2-Chloro-4-cyclopropylphenyl)-N-(2-(2-fluorophenyl)-1,5-dimethyl-3-oxo-2,3-dihydro-1H-pyrazol-4-yl)-4-methylisoxazole-3-carboxamide]",13.4 nM,3660 nM
"Cc1c(NC(=O)c2noc(-c3ccc(OC(F)F)cc3Cl)c2Cl)c(=O)n(-c2ccccc2F)n1C [Example 003, 4-Chloro-5-(2-chloro-4-(difluoromethoxy)phenyl)-N-(2-(2-fluorophenyl)-1,5-dimethyl-3-oxo-2,3-dihydro-1H-pyrazol-4-yl)isoxazole-3-carboxamide]",54.3 nM,16800 nM
"COc1ccc(-c2onc(C(=O)Nc3c(C)n(C)n(-c4ccccc4F)c3=O)c2C)c(Cl)c1 [Example 006, 5-(2-Chloro-4-methoxyphenyl)-N-(2-(2-fluorophenyl)-1,5-dimethyl-3-oxo-2,3-dihydro-1H-pyrazol-4-yl)-4-methylisoxazole-3-carboxamide]",23.5 nM,10800 nM
"Cc1c(C(=O)Nc2c(C)n(C)n(-c3ccccc3F)c2=O)noc1-c1ccc(C(F)(F)F)cc1 [Example 008, N-(2-(2-Fluorophenyl)-1,5-dimethyl-3-oxo-2,3-dihydro-1H-pyrazol-4-yl)-4-methyl-5-(4-(trifluoromethyl)phenyl) isoxazole-3-carboxamide]",883 nM,> 10000 nM
"Cc1c(C(=O)Nc2c(C)n(C)n(C3CCCCC3)c2=O)noc1-c1ccc(OC(F)(F)F)cc1Cl [Example 010, 5-(2-Chloro-4-(trifluoromethoxy)phenyl)-N-(2-cyclohexyl-1,5-dimethyl-3-oxo-2,3-dihydro-1H-pyrazol-4-yl)-4-methylisoxazole-3-carboxamide]",22.7 nM,2740 nM
"CSc1ccc(-c2onc(C(=O)Nc3c(C)n(C)n(-c4ccccc4F)c3=O)c2C)cc1 [Example 011, N-(2-(2-Fluorophenyl)-1,5-dimethyl-3-oxo-2,3-dihydro-1H-pyrazol-4-yl)-4-methyl-5-(4-(methylthio)phenyl) isoxazole-3-carboxamide]",777 nM,> 10000 nM
"Cc1c(C(=O)Nc2c(C)n(C)n(-c3ccccc3F)c2=O)noc1-c1ccc(N(C)C)cc1 [Example 012, 5-(4-(Dimethylamino)phenyl)-N-(2-(2-fluorophenyl)-1,5-dimethyl-3-oxo-2,3-dihydro-1H-pyrazol-4-yl)-4-methylisoxazole-3-carboxamide]",1050 nM,> 10000 nM
"COc1ccc(-c2onc(C(=O)Nc3c(C)n(C)n(-c4ccccc4F)c3=O)c2C)c(C(F)(F)F)c1 [Example 013, N-(2-(2-Fluorophenyl)-1,5-dimethyl-3-oxo-2,3-dihydro-1H-pyrazol-4-yl)-5-(4-methoxy-2-(trifluoromethyl)phenyl)-4-methylisoxazole-3-carboxamide]",102 nM,> 20000 nM
"Cc1c(C(=O)Nc2c(C)n(C)n(C3CCCCC3)c2=O)noc1-c1ccc(C2CC2)cc1Cl [Example 019, 5-(2-Chloro-4-cyclopropylphenyl)-N-(2-cyclohexyl-1,5-dimethyl-3-oxo-2,3-dihydro-1H-pyrazol-4-yl)-4-methylisoxazole-3-carboxamide]",3.5 nM,3100 nM
"COc1ccc(-c2onc(C(=O)Nc3c(C)n(C)n(-c4ccccc4F)c3=O)c2Cl)c(F)c1Cl [Example 021, 4-Chloro-5-(3-chloro-2-fluoro-4-methoxyphenyl)-N-(2-(2-fluorophenyl)-1,5-dimethyl-3-oxo-2,3-dihydro-1H-pyrazol-4-yl)isoxazole-3-carboxamide]",810 nM,> 10000 nM
"COc1ccc(-c2onc(C(=O)Nc3c(C)n(C)n(-c4ccccc4F)c3=O)c2Cl)c(F)c1 [Example 022, 4-Chloro-5-(2-fluoro-4-methoxyphenyl)-N-(2-(2-fluorophenyl)-1,5-dimethyl-3-oxo-2,3-dihydro-1H-pyrazol-4-yl) isoxazole-3-carboxamide]",1160 nM,> 10000 nM
"Cc1c(NC(=O)c2noc(-c3ccc(Cl)cc3Cl)c2Cl)c(=O)n(C2CCCCC2)n1C [Example 023, 4-Chloro-N-(2-cyclohexyl-1,5-dimethyl-3-oxo-2,3-dihydro-1H-pyrazol-4-yl)-5-(2,4-dichlorophenyl) isoxazole-3-carboxamide]",2.4 nM,4250 nM
"Cc1c(NC(=O)c2noc(-c3ccc(C4CC4)cc3Cl)c2Cl)c(=O)n(-c2ccccc2F)n1C [Example 030, 4-Chloro-5-(2-chloro-4-cyclopropylphenyl)-N-(2-(2-fluorophenyl)-1,5-dimethyl-3-oxo-2,3-dihydro-1H-pyrazol-4-yl)isoxazole-3-carboxamide]",13.3 nM,5400 nM
"COc1ccc(-c2onc(C(=O)Nc3c(C)n(C)n(-c4ccccc4F)c3=O)c2F)c(Cl)c1 [Example 033, 5-(2-Chloro-4-methoxyphenyl)-4-fluoro-N-(2-(2-fluorophenyl)-1,5-dimethyl-3-oxo-2,3-dihydro-1H-pyrazol-4-yl)isoxazole-3-carboxamide]",220 nM,> 20000 nM
"COc1ccc(-c2onc(C(=O)Nc3c(C)n(C)n(C4CCCCC4)c3=O)c2Br)c(Cl)c1 [Example 034, 4-Bromo-5-(2-chloro-4-methoxyphenyl)-N-(2-cyclohexyl-1,5-dimethyl-3-oxo-2,3-dihydro-1H-pyrazol-4-yl)isoxazole-3-carboxamide]",3.7 nM,5230 nM
"Cc1c(NC(=O)c2noc(-c3ccc(Cl)cc3Cl)c2Br)c(=O)n(-c2ccccc2F)n1C [Example 037, 4-Bromo-5-(2,4-dichlorophenyl)-N-(2-(2-fluorophenyl)-1,5-dimethyl-3-oxo-2,3-dihydro-1H-pyrazol-4-yl)isoxazole-3-carboxamide]",36 nM,17800 nM
"Cc1c(NC(=O)c2noc(-c3ccc(Cl)cc3Cl)c2C2CC2)c(=O)n(C2CCCCC2)n1C [Example 039, N-(2-Cyclohexyl-1,5-dimethyl-3-oxo-2,3-dihydro-1H-pyrazol-4-yl)-4-cyclopropyl-5-(2,4-dichlorophenyl) isoxazole-3-carboxamide]",8.3 nM,7500 nM
"Cc1c(NC(=O)c2noc(-c3ccc(Cl)cc3Cl)c2C#N)c(=O)n(-c2ccccc2F)n1C [Example 042, 4-Cyano-5-(2,4-dichlorophenyl)-N-(2-(2-fluorophenyl)-1,5-dimethyl-3-oxo-2,3-dihydro-1H-pyrazol-4-yl)isoxazole-3-carboxamide]",450 nM,19200 nM
"COc1cc(F)c(-c2onc(C(=O)Nc3c(C)n(C)n(-c4ccccc4F)c3=O)c2C)c(F)c1 [Example 046, 5-(2,6-difluoro-4-methoxyphenyl)-N-(2-(2-fluorophenyl)-1,5-dimethyl-3-oxo-2,3-dihydro-1H-pyrazol-4-yl)-4-methylisoxazole-3-carboxamide]",4150 nM,> 10000 nM
"COCc1ccc(-c2onc(C(=O)Nc3c(C)n(C)n(C4CCCCC4)c3=O)c2C)c(Cl)c1 [Example 47, 5-(2-Chloro-4-(methoxymethyl)phenyl)-N-(2-cyclohexyl-1,5-dimethyl-3-oxo-2,3-dihydro-1H-pyrazol-4-yl)-4-methylisoxazole-3-carboxamide]",41.5 nM,> 20200 nM
"COc1ccc(-c2onc(C(=O)Nc3c(C)n(C)n(C4CCCCC4)c3=O)c2C)cc1C [Example 048, N-(2-Cyclohexyl-1,5-dimethyl-3-oxo-2,3-dihydro-1H-pyrazol-4-yl)-5-(4-methoxy-3-methylphenyl)-4-methylisoxazole-3-carboxamide]",7.7 nM,2400 nM
